Results published in patent publication US20240228572A1 (i2o Therapeutics, Inc., priority 2020, published 2024).
*1 amine or outer side, *2 acyl side, *3 side chain or, on linkers, in order; H or OH if unused. Where a SMILES comes first, the peptide text is derived from it. Bridges are numbered along the chain shown (N, C = ends). Side-chain parts run from the residue outwards. [ ]: non-standard residue; d: D form. The star is where a group is joined. C20 diacid = O=C(O)CCCCCCCCCCCCCCCCCCC(=O)*; γGlu = O=C(O)[C@H](CCC(=O)[*:2])N[*:1]; AEEA = NCCOCCOCC(=O)O; Aib = CC(C)(N)C(=O)O

What was measured:
[1] = target: T1, human Glucagon receptor (GCGR) (Homo sapiens, UniProt P47871); assay: cAMP accumulation assay, CHO-K1 cells expressing human GCGR; type: cell-based; conditions: mean pEC50, Table 10
T1 construct: A cDNA fragment encoding the full-length open reading frame of the human GCGR; expressed in transfected cells; host or cells: CHO-K1, pcDNA3.1+, Lipofectamine 2000
T1 sequence (P47871 26-477): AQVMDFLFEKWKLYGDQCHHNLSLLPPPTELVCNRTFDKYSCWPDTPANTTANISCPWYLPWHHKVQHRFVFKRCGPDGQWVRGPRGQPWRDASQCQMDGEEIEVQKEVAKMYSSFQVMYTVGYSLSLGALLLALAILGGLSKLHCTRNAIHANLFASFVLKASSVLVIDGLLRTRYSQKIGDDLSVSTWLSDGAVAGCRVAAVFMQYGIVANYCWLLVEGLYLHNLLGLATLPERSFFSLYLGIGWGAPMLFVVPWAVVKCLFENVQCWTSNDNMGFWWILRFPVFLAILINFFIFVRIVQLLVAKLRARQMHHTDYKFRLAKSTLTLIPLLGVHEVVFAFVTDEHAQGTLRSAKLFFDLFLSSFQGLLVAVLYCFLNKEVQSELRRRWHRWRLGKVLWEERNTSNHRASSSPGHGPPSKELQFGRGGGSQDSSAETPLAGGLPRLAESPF

[2] = target: T2, human GLP-1 receptor (GLP-1R) (Homo sapiens, UniProt P43220); assay: cAMP accumulation assay, CHO-K1 cells stably expressing human GLP-1R; type: cell-based; conditions: cAMP accumulation, mean pEC50, Table 10
T2 construct: expressed in transfected cells
T2 sequence (P43220 24-463): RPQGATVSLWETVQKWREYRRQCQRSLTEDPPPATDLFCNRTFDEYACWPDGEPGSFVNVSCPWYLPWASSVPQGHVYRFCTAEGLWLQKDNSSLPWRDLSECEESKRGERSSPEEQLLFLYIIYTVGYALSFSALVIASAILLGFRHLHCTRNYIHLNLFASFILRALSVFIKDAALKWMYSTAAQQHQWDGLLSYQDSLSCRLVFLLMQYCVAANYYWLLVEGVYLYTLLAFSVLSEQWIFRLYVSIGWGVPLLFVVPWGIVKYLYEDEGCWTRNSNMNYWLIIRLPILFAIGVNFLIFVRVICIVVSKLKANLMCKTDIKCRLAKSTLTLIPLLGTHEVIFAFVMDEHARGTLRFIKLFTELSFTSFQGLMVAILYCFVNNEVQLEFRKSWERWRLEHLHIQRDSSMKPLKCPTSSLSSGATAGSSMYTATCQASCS

Compound	EC50 [1] [nM]	EC50 [2] [nM]
CC(C)C[C@H](NC(=O)[C@H](Cc1ccc(O)cc1)NC(=O)[C@H](CCCCN)NC(=O)[C@H](CO)NC(=O)[C@H](Cc1ccc(O)cc1)NC(=O)[C@H](CC(=O)O)NC(=O)[C@H](CO)NC(=O)[C@@H](NC(=O)[C@H](Cc1ccccc1)NC(=O)[C@@H](NC(=O)CNC(=O)[C@H](Cc1c[nH]cn1)NC(=O)[C@H](CO)NC(=O)[C@@H](N)Cc1ccc(O)cc1)[C@@H](C)O)[C@@H](C)O)C(=O)N[C@@H](CC(=O)O)C(=O)N[C@@H](CCCCNC(=O)CC[C@H](NC(=O)CC[C@H](NC(=O)COCCOCCNC(=O)CCCCCCCCCCCCCCCCCCC(=O)O)C(=O)O)C(=O)O)C(=O)N[C@@H](CCCCN)C(=O)N[C@@H](Cc1ccc(O)cc1)C(=O)N[C@@H](C)C(=O)N[C@@H](CCC(N)=O)C(=O)N[C@@H](CCC(=O)O)C(=O)N[C@@H](Cc1ccccc1)C(=O)NC(C)(C)C(=O)N[C@@H](CO)C(=O)N[C@@H](Cc1c[nH]c2ccccc12)C(=O)N[C@@H](CC(C)C)C(=O)N[C@@H](CCC(=O)O)C(=O)N[C@@H](CC(=O)O)C(=O)N[C@@H](CCC(=O)O)C(=O)N1CCC[C@H]1C(=O)N[C@@H](CO)C(=O)N[C@@H](CO)C(=O)NCC(=O)N[C@@H](C)C(=O)N1CCC[C@H]1C(=O)N1CCC[C@H]1C(=O)N1CCC[C@H]1C(=O)N[C@@H](CO)C(=O)O [Compound A10] (H-YSHGTFTSDYSKYLDK([γGlu-γGlu-AEEA-C20 diacid])KYAQEF[Aib]SWLEDEPSSGAPPPS-OH; N-terminus assumed)	0.0398	> 1
CC(C)C[C@H](NC(=O)[C@H](Cc1ccc(O)cc1)NC(=O)[C@H](CCCCN)NC(=O)[C@H](CO)NC(=O)[C@H](Cc1ccc(O)cc1)NC(=O)[C@H](CC(=O)O)NC(=O)[C@H](CO)NC(=O)[C@@H](NC(=O)[C@H](Cc1ccccc1)NC(=O)[C@@H](NC(=O)CNC(=O)[C@H](Cc1c[nH]cn1)NC(=O)[C@H](CO)NC(=O)[C@@H](N)Cc1ccc(O)cc1)[C@@H](C)O)[C@@H](C)O)C(=O)N[C@@H](CC(=O)O)C(=O)N[C@@H](CCCCNC(=O)CC[C@H](NC(=O)CC[C@H](NC(=O)COCCOCCNC(=O)CCCCCCCCCCCCCCCCCCC(=O)O)C(=O)O)C(=O)O)C(=O)N[C@@H](CCCCN)C(=O)N[C@@H](Cc1ccc(O)cc1)C(=O)N[C@@H](C)C(=O)N[C@H]1CCC(=O)NCCCC[C@@H](C(=O)N[C@@H](Cc2c[nH]c3ccccc23)C(=O)N[C@@H](CC(C)C)C(=O)N[C@@H](CCC(=O)O)C(=O)N[C@@H](CC(=O)O)C(=O)N[C@@H](CCC(=O)O)C(N)=O)NC(=O)[C@H](C(C)C)NC(=O)[C@H](Cc2ccccc2)NC(=O)[C@H](CCCCN)NC1=O [Compound A35] (H-YSHGTFTSDYSKYLDK([γGlu-γGlu-AEEA-C20 diacid])KYAEKFVKWLEDE-NH2; lactam 20-24; N-terminus assumed)	0.00126	> 1
CC(C)C[C@H](NC(=O)[C@H](Cc1ccc(O)cc1)NC(=O)[C@H](CCCCN)NC(=O)[C@H](CO)NC(=O)[C@H](Cc1ccc(O)cc1)NC(=O)[C@H](CC(=O)O)NC(=O)[C@H](CO)NC(=O)[C@@H](NC(=O)[C@H](Cc1ccccc1)NC(=O)[C@@H](NC(=O)CNC(=O)[C@H](Cc1c[nH]cn1)NC(=O)[C@H](CO)NC(=O)[C@@H](N)Cc1ccc(O)cc1)[C@@H](C)O)[C@@H](C)O)C(=O)N[C@@H](CC(=O)O)C(=O)N[C@@H](CCCCNC(=O)CC[C@H](NC(=O)CC[C@H](NC(=O)COCCOCCNC(=O)CCCCCCCCCCCCCCCCCCC(=O)O)C(=O)O)C(=O)O)C(=O)N[C@@H](CCCCN)C(=O)N[C@@H](Cc1ccc(O)cc1)C(=O)N[C@@H](C)C(=O)N[C@H]1CCC(=O)NCCCC[C@@H](C(=O)N[C@@H](Cc2c[nH]c3ccccc23)C(=O)N[C@@H](CC(C)C)C(=O)N[C@@H](CCC(=O)O)C(=O)N[C@@H](CC(N)=O)C(=O)N[C@@H](CCC(=O)O)C(=O)N2CCC[C@H]2C(=O)N[C@@H](CO)C(=O)N[C@@H](CO)C(=O)NCC(=O)N[C@@H](C)C(=O)N2CCC[C@H]2C(=O)N2CCC[C@H]2C(=O)N2CCC[C@H]2C(=O)N[C@@H](CO)C(=O)O)NC(=O)[C@H](C(C)C)NC(=O)[C@H](Cc2ccccc2)NC(=O)[C@H](CCCCN)NC1=O [Compound A27] (H-YSHGTFTSDYSKYLDK([γGlu-γGlu-AEEA-C20 diacid])KYAEKFVKWLENEPSSGAPPPS-OH; lactam 20-24; N-terminus assumed)	0.001	> 1
CC(C)C[C@H](NC(=O)[C@H](Cc1ccc(O)cc1)NC(=O)[C@H](CCCCN)NC(=O)[C@H](CO)NC(=O)[C@H](Cc1ccc(O)cc1)NC(=O)[C@H](CC(=O)O)NC(=O)[C@H](CO)NC(=O)[C@@H](NC(=O)[C@H](Cc1ccccc1)NC(=O)[C@@H](NC(=O)CNC(=O)[C@H](Cc1c[nH]cn1)NC(=O)[C@H](CO)NC(=O)[C@@H](N)Cc1ccc(O)cc1)[C@@H](C)O)[C@@H](C)O)C(=O)N[C@@H](CC(=O)O)C(=O)N[C@@H](CCCCNC(=O)CC[C@H](NC(=O)CC[C@H](NC(=O)COCCOCCNC(=O)CCCCCCCCCCCCCCCCCCC(=O)O)C(=O)O)C(=O)O)C(=O)N[C@@H](CCCCN)C(=O)N[C@@H](Cc1ccc(O)cc1)C(=O)N[C@@H](C)C(=O)N[C@@H](CCC(=O)O)C(=O)N[C@@H](CCC(=O)O)C(=O)N[C@@H](Cc1ccccc1)C(=O)N[C@H](C(=O)NC(C)(C)C(=O)N[C@@H](Cc1c[nH]c2ccccc12)C(=O)N[C@@H](CC(C)C)C(=O)N[C@@H](CCC(=O)O)C(=O)N[C@@H](CO)C(=O)N[C@@H](CCC(=O)O)C(=O)N1CCC[C@H]1C(=O)N[C@@H](CO)C(=O)N[C@@H](CO)C(=O)NCC(=O)N[C@@H](C)C(=O)N1CCC[C@H]1C(=O)N1CCC[C@H]1C(=O)N1CCC[C@H]1C(=O)N[C@@H](CO)C(=O)O)C(C)C [Compound A23] (H-YSHGTFTSDYSKYLDK([γGlu-γGlu-AEEA-C20 diacid])KYAEEFV[Aib]WLESEPSSGAPPPS-OH)	0.00316	> 1
CC(C)C[C@H](NC(=O)[C@H](Cc1ccc(O)cc1)NC(=O)[C@H](CCCCN)NC(=O)[C@H](CO)NC(=O)[C@H](Cc1ccc(O)cc1)NC(=O)[C@H](CC(=O)O)NC(=O)[C@H](CO)NC(=O)[C@@H](NC(=O)[C@H](Cc1ccccc1)NC(=O)[C@@H](NC(=O)CNC(=O)[C@H](Cc1c[nH]cn1)NC(=O)[C@H](CO)NC(=O)[C@@H](N)Cc1ccc(O)cc1)[C@@H](C)O)[C@@H](C)O)C(=O)N[C@@H](CC(=O)O)C(=O)N[C@@H](CCCCNC(=O)CC[C@H](NC(=O)CC[C@H](NC(=O)COCCOCCNC(=O)CCCCCCCCCCCCCCCCCCC(=O)O)C(=O)O)C(=O)O)C(=O)N[C@@H](CCCCN)C(=O)N[C@@H](Cc1ccc(O)cc1)C(=O)N[C@@H](C)C(=O)N[C@H]1CCC(=O)NCCCC[C@@H](C(=O)N[C@@H](Cc2c[nH]c3ccccc23)C(=O)N[C@@H](CC(C)C)C(=O)N[C@@H](CCC(=O)O)C(=O)N[C@@H](CC(=O)O)C(=O)N[C@@H](CCC(=O)O)C(=O)N2CCC[C@H]2C(=O)N[C@@H](CO)C(=O)N[C@@H](CO)C(=O)NCC(=O)N[C@@H](C)C(=O)N2CCC[C@H]2C(=O)N2CCC[C@H]2C(=O)N2CCC[C@H]2C(=O)N[C@@H](CO)C(N)=O)NC(=O)[C@H](C(C)C)NC(=O)[C@H](Cc2ccccc2)NC(=O)[C@H](CCCCN)NC1=O [Compound A34] (H-YSHGTFTSDYSKYLDK([γGlu-γGlu-AEEA-C20 diacid])KYAEKFVKWLEDEPSSGAPPPS-NH2; lactam 20-24)	0.00126	> 1
CC(C)C[C@H](NC(=O)[C@H](Cc1ccc(O)cc1)NC(=O)[C@H](CCCCN)NC(=O)[C@H](CO)NC(=O)[C@H](Cc1ccc(O)cc1)NC(=O)[C@H](CC(=O)O)NC(=O)[C@H](CO)NC(=O)[C@@H](NC(=O)[C@H](Cc1ccccc1)NC(=O)[C@@H](NC(=O)CNC(=O)[C@H](Cc1c[nH]cn1)NC(=O)[C@H](CO)NC(=O)[C@@H](N)Cc1ccc(O)cc1)[C@@H](C)O)[C@@H](C)O)C(=O)N[C@@H](CC(=O)O)C(=O)N[C@@H](CCCCNC(=O)CC[C@H](NC(=O)CC[C@H](NC(=O)COCCOCCNC(=O)CCCCCCCCCCCCCCCCCCC(=O)O)C(=O)O)C(=O)O)C(=O)N[C@@H](CCCCN)C(=O)N[C@@H](Cc1ccc(O)cc1)C(=O)N[C@@H](C)C(=O)N[C@@H](CCC(N)=O)C(=O)N[C@@H](CCC(=O)O)C(=O)N[C@@H](Cc1ccccc1)C(=O)NC(C)(C)C(=O)N[C@@H](CCC(N)=O)C(=O)N[C@@H](Cc1c[nH]c2ccccc12)C(=O)N[C@@H](CC(C)C)C(=O)N[C@@H](CCC(=O)O)C(=O)N[C@@H](CC(=O)O)C(=O)N[C@@H](CCC(=O)O)C(=O)N1CCC[C@H]1C(=O)N[C@@H](CO)C(=O)N[C@@H](CO)C(=O)NCC(=O)N[C@@H](C)C(=O)N1CCC[C@H]1C(=O)N1CCC[C@H]1C(=O)N1CCC[C@H]1C(=O)N[C@@H](CO)C(=O)O [Compound A7] (H-YSHGTFTSDYSKYLDK([γGlu-γGlu-AEEA-C20 diacid])KYAQEF[Aib]QWLEDEPSSGAPPPS-OH; N-terminus assumed)	0.02	> 1
CC(C)C[C@H](NC(=O)[C@H](Cc1ccc(O)cc1)NC(=O)[C@H](CCCCN)NC(=O)[C@H](CO)NC(=O)[C@H](Cc1ccc(O)cc1)NC(=O)[C@H](CC(=O)O)NC(=O)[C@H](CO)NC(=O)[C@@H](NC(=O)[C@H](Cc1ccccc1)NC(=O)[C@@H](NC(=O)CNC(=O)[C@H](Cc1c[nH]cn1)NC(=O)[C@H](CO)NC(=O)[C@@H](N)Cc1ccc(O)cc1)[C@@H](C)O)[C@@H](C)O)C(=O)N[C@@H](CC(=O)O)C(=O)N[C@@H](CCCCNC(=O)CC[C@H](NC(=O)CC[C@H](NC(=O)COCCOCCNC(=O)CCCCCCCCCCCCCCCCCCC(=O)O)C(=O)O)C(=O)O)C(=O)N[C@@H](CCCCN)C(=O)N[C@@H](Cc1ccc(O)cc1)C(=O)N[C@@H](C)C(=O)N[C@H]1CCCCNC(=O)CC[C@@H](C(=O)N[C@@H](Cc2c[nH]c3ccccc23)C(=O)N[C@@H](CC(C)C)C(=O)N[C@@H](CCC(=O)O)C(=O)N[C@@H](CC(=O)O)C(=O)N[C@@H](CCC(=O)O)C(=O)N2CCC[C@H]2C(=O)N[C@@H](CO)C(=O)N[C@@H](CO)C(=O)NCC(=O)N[C@@H](C)C(=O)N2CCC[C@H]2C(=O)N2CCC[C@H]2C(=O)N2CCC[C@H]2C(=O)N[C@@H](CO)C(=O)O)NC(=O)[C@H](C(C)C)NC(=O)[C@H](Cc2ccccc2)NC(=O)[C@H](CCC(=O)O)NC1=O [Compound A11] (H-YSHGTFTSDYSKYLDK([γGlu-γGlu-AEEA-C20 diacid])KYAKEFVEWLEDEPSSGAPPPS-OH; lactam 20-24)	0.002	> 1
